The results in this text go back to patent US20230416199A1, “INHIBITORS OF AMINO ACID TRANSPORT” (ICAHN SCHOOL OF MEDICINE AT MOUNT SINAI, priority 2020, published 2023).

What all share (assay type): cell-based
Test [1] addresses T1, hASCT2 (Homo sapiens, UniProt Q15758).
T1 construct: expressed in transfected cells; host or cells: HEK293 (ATCC CRL-11268), transient transfection
T1 sequence (Q15758 1-541): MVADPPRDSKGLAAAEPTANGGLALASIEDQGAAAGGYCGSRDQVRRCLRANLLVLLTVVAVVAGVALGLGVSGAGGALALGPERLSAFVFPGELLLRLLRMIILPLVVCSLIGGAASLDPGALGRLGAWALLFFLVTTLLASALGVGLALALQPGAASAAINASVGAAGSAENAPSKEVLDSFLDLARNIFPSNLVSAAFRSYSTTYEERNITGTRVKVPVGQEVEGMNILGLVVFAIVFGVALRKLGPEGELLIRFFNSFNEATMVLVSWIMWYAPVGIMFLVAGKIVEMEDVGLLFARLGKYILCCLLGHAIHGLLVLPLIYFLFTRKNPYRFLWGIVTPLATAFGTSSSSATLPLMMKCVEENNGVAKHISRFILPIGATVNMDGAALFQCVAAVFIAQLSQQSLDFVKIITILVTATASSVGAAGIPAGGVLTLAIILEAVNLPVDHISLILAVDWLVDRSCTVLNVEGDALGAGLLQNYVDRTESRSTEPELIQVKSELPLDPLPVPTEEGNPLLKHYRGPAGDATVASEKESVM
In words: Competition experiment with alanine, hASCT2. As to conditions: 0.5 mM ala, first entry of the cell.

Test [2] has as its target T2, rASCT2 (Rattus norvegicus, UniProt D3ZJ25).
T2 construct: expressed in transfected cells; host or cells: HEK293 (ATCC CRL-11268), transient transfection
T2 sequence (D3ZJ25 1-555): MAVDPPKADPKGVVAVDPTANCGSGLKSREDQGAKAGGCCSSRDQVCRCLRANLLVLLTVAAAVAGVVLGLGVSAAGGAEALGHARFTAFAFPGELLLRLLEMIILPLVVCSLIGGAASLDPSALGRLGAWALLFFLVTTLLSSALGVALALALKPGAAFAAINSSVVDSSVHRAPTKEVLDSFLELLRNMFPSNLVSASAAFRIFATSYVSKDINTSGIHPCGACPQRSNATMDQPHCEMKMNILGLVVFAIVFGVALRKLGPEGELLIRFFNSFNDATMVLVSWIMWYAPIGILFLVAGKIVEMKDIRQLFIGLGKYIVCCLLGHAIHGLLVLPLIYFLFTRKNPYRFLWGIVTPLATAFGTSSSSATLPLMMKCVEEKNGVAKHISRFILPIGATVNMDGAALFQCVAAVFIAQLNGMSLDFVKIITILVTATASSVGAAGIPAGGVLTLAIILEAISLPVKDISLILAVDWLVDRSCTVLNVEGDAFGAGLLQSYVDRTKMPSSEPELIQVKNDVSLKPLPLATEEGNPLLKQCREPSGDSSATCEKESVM
Kind of test: Competition experiment with alanine, rASCT2. As to conditions: 0.5 mM ala, second entry of the cell.

For the next test, the target named is T3, EAAT1 (Homo sapiens, UniProt P43003).
T3 construct: expressed in transfected cells; host or cells: HEK293 (ATCC CRL-11268), transient transfection
T3 sequence (P43003 whole entry, species assumed): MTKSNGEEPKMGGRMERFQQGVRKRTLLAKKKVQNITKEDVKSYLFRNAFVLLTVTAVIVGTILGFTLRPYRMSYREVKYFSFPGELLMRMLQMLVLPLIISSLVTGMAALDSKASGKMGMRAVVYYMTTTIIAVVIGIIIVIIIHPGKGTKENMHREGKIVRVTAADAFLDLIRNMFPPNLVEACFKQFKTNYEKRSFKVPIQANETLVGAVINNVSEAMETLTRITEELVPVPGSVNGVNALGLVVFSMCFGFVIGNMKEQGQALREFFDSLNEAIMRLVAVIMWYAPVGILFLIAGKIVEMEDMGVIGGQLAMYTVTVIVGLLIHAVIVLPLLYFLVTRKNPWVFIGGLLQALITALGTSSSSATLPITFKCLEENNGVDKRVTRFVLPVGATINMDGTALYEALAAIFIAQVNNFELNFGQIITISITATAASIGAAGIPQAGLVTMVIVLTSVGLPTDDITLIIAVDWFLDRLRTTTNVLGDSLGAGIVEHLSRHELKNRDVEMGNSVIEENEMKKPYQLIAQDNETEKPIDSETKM
In words: Electrophysiology specificity experiment in transfected HEK293 cells, EAAT1. To be noted: apparent Ki, HEK293, internal solution 10 mM glutamate, mean ± SD. On the procedure:
(§1) Human embryonic kidney 293 (HEK293, ATCC CRL-11268) cells were cultured in DMEM media supplemented with 10% (v v) fetal bovine serum (FBS), 2 mM glutamine, 1% penicillin streptomycin solution, 1 mM sodium pyruvate and non-essential amino acids. Cells were maintained at 37° C. in a fully humidified atmosphere containing 5% CO2. rASCT2, hASCT2, hASCT1, EAAT1, EAAT2, EAAC1, EAAT5 and YFP complementary DNAs were each used to transiently transfect HEK293 using POLYPLUS Jet-prime transfection reagent. Cells were analyzed using electrophysiological techniques 24-40 hours after transfection.
(§2) Stock solutions of inhibitor was prepared in dimethyl sulfoxide (DMSO) up to 100 mM. Dilutions to working concentrations were made using external buffer. […] For rASCT2, hASCT2 and hASCT1, external buffer contained 140 mM NaCl, 2 mM MgCl2, 2 mM CaCl2), and 10 mM HEPES, pH 7.40 while internal pipette solution comprised of 130 mM NaSCN, 2 mM MgCl2, 10 mM EGTA, 10 mM HEPES and 10 mM alanine, pH 7.40. For specificity experiments with EAAT1, EAAT2, EAAC1 and EAAT5, internal solution contained 10 mM glutamate instead of alanine. Compounds were applied to HEK293 cells expressing DNA of interest suspended from a current recording electrode in whole cell configuration through a rapid solution exchange device. Cells are immersed in external buffer bath used to dissolve the inhibitors. The open pipette resistance was between 3 and 6 MΩ. Series resistance was not compensated in these experiments due to relatively small currents. Currents traces were recorded using an Adams and List EPC7 amplifier and digitized using a Molecular Devices Digidata A/D converter.
(§3) Linear and nonlinear curve fitting of the experimental data were analyzed using MicroCal Origin software. Nonlinear dose-response relationships were fitted with a Michaelis-Menten-like equation to obtain apparent Ki values in the absence of substrate (see TABLE 2 for Ki values). The figures show representative current traces and dose-response curves for hACST2 and rASCT2, used to obtain Ki values in TABLE 2 for compound SN 40. At least four experiments were performed with at least three different cells. Error bars in all graphs, e.g., in FIG. 1B and FIG. 1C and tables (Ki values) represent mean±SD.

For a further test, the target named is T4, EAAT2 (Homo sapiens, UniProt P43004).
T4 construct: expressed in transfected cells; host or cells: HEK293 (ATCC CRL-11268), transient transfection
T4 sequence (P43004 whole entry, species assumed): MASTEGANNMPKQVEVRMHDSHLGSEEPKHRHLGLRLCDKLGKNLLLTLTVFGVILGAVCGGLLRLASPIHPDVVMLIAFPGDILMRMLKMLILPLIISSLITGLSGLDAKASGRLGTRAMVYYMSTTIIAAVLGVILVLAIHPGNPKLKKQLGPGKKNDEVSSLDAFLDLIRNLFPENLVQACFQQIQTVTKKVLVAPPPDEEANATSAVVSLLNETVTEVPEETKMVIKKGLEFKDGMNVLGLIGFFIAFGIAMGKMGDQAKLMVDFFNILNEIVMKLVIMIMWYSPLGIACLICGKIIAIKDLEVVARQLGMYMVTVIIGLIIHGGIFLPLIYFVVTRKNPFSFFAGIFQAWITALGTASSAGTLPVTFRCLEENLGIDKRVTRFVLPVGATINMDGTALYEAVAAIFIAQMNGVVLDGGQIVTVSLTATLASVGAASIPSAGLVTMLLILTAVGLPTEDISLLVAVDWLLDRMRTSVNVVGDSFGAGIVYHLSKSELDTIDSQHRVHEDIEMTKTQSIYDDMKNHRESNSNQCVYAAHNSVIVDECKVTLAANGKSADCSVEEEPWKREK
Kind of test: Electrophysiology specificity experiment in transfected HEK293 cells, EAAT2. To be noted: apparent Ki, HEK293, internal solution 10 mM glutamate, mean ± SD; read-out: Ki EAAT2. On the procedure: as §1, §2, §3

Test [3] deals with T2, rASCT2. In words: Electrophysiology (whole-cell current recording) of transfected HEK293 cells, rASCT2. As to conditions: apparent Ki in the absence of substrate, HEK293, mean ± SD; read-out: Ki rASCT2. On the procedure: as §1, §2, §3
A further test has as its target T5, EAAT5 (Homo sapiens, UniProt O00341).
T5 construct: expressed in transfected cells; host or cells: HEK293 (ATCC CRL-11268), transient transfection
Kind of test: Electrophysiology specificity experiment in transfected HEK293 cells, EAAT5. As to conditions: apparent Ki, HEK293, internal solution 10 mM glutamate, mean ± SD. Here is the method:
as §1, §2, §3

A further test concerns the target T6, hASCT1 (Homo sapiens, UniProt P43007).
T6 construct: expressed in transfected cells; host or cells: HEK293 (ATCC CRL-11268), transient transfection
T6 sequence (P43007 1-532): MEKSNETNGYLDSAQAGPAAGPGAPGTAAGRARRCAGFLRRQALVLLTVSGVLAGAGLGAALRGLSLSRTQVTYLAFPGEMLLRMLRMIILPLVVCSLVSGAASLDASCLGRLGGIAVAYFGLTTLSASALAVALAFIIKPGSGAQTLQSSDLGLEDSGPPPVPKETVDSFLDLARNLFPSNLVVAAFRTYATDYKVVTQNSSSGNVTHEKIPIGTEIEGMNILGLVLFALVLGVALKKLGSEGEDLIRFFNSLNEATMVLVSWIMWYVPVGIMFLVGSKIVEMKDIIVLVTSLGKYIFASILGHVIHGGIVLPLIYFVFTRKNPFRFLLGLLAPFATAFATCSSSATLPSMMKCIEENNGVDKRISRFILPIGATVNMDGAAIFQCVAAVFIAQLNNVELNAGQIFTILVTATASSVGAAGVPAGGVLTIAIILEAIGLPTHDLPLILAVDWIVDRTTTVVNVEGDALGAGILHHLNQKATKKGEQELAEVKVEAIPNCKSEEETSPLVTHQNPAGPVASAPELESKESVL
In words: Electrophysiology (whole-cell current recording) of transfected HEK293 cells, hASCT1. To be noted: apparent Ki in the absence of substrate, HEK293, mean ± SD; read-out: Ki hASCT1. On the procedure: as §1, §2, §3

The target in test [4] is T1, hASCT2. Kind of test: Electrophysiology (whole-cell current recording) of transfected HEK293 cells, hASCT2. To be noted: apparent Ki in the absence of substrate, HEK293, mean ± SD; read-out: Ki hASCT2. Here is the method:
as §1, §2, §3

The next test has as its target T7, EAAC1 (UniProt P51907).
T7 construct: Ki EAAC1; other: apparent Ki, HEK293, internal solution 10 mM glutamate, mean ± SD
T7 sequence (P51907 1-523): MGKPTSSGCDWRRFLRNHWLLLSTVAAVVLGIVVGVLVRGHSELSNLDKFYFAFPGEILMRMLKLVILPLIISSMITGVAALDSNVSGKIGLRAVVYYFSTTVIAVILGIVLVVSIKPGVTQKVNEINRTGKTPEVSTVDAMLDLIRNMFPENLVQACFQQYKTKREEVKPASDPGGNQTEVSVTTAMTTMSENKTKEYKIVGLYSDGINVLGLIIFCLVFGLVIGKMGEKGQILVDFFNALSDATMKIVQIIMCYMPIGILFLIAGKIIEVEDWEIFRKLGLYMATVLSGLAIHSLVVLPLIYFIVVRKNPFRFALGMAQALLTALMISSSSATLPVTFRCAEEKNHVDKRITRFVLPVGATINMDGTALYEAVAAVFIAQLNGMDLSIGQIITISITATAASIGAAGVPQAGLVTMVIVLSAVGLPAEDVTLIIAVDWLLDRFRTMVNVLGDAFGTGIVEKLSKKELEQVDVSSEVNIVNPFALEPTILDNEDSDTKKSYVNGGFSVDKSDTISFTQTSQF
Kind of test: Electrophysiology specificity experiment in transfected HEK293 cells, EAAC1. To be noted: apparent Ki, HEK293, internal solution 10 mM glutamate, mean ± SD. On the procedure:
Cells were maintained at 37° C. in a fully humidified atmosphere containing 5% CO2. rASCT2, hASCT2, hASCT1, EAAT1, EAAT2, EAAC1, EAAT5 and YFP complementary DNAs were each used to transiently transfect HEK293 using POLYPLUS Jet-prime transfection reagent. Cells were analyzed using electrophysiological techniques 24-40 hours after transfection.
as §2
Linear and nonlinear curve fitting of the experimental data were analyzed using MicroCal Origin software. Nonlinear dose-response relationships were fitted with a Michaelis-Menten-like equation to obtain apparent Ki values in the absence of substrate (see TABLE 2 for Ki values). […] At least four experiments were performed with at least three different cells. Error bars in all graphs, e.g., in FIG. 1B and FIG. 1C and tables (Ki values) represent mean±SD.

T5 sequence (O00341 whole entry, species assumed): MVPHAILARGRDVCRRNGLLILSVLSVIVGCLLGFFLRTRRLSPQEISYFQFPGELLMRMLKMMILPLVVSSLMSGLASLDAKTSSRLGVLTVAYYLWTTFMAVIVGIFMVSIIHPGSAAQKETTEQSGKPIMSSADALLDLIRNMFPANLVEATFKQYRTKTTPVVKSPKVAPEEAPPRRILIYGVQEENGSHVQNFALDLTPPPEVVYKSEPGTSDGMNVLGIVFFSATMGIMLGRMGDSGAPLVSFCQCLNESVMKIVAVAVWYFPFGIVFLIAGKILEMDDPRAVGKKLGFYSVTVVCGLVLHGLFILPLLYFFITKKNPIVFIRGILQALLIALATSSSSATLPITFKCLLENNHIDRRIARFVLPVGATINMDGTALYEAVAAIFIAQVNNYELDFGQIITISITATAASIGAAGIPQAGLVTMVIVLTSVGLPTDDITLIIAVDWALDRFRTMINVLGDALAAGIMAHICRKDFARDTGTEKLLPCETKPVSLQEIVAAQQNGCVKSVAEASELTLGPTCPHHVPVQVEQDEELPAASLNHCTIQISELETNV

Regarding `O=C(O[C@@]1(CO)CN[C@H](C(=O)O)C1)c1ccc(-c2ccccc2)cc1` [SN77], the “Competition Expt % block (given as a decimal): hASCT2” value on hASCT2 [1] (decimal fraction) was 0.5. In addition, the figures for the Ki on hASCT2 [1] (read-out: Competition Expt (h/rASCT2 Ki): hASCT2 Ki) and on rASCT2 [2] (read-out: Competition Expt (h/rASCT2 Ki): rASCT2 Ki) were 20.3 µM and 12.9 µM, respectively. For the same compound, on rASCT2 [2] (decimal fraction), the “Competition Expt % block (given as a decimal): rASCT2” value was found to be 0.5.

Turning to `O=C(O[C@@H]1CN[C@H](C(=O)O)C1)c1ccc(C(=O)c2ccccc2)cc1` [SN 12], the Ki on EAAT1 came to 21.2 ± 4.5 µM; at EAAT2 it was 15.4 ± 4.9 µM; at rASCT2 [3], 6.66 ± 1.2 µM; on EAAT5, 13.8 ± 2.7 µM; on hASCT1, 6.86 ± 1.1 µM; at hASCT2 [4], 21.4 ± 3.2 µM.

For `O=C(Nc1cccc(C(=O)O[C@@H]2CN[C@H](C(=O)O)C2)c1)c1ccccc1` [SN 16], the Ki was 49.4 ± 9.7 µM on EAAT1; 0.11 ± 0.04 µM on rASCT2 [3]; 566 ± 188 µM at EAAT5; 10.1 ± 0.6 µM at hASCT1; 0.39 ± 0.1 µM at hASCT2 [4].

Turning to `O=C(O)[C@@H]1C[C@H](NCc2ccc(-c3ccccc3)cc2)CN1` [SN 40], the Ki at EAAT1 came to 2.94 ± 0.4 µM; at EAAT2, 5.55 ± 1.7 µM; at rASCT2 [3], 7.29 ± 1.8 µM; on EAAT5, 5.55 ± 0.7 µM; at hASCT2 [4] it was 2.42 ± 0.1 µM; on EAAC1, 24.4 ± 2.5 µM.

Consider `O=C(O)[C@H]1NC[C@@H](NCc2ccc(-c3ccccc3)cc2)[C@@H]1O` [SN 50], for which the Ki on EAAT1 came out at 2.71 ± 0.7 µM; on rASCT2 [3], 1.34 ± 0.1 µM; at hASCT2 [4] it was 1.61 ± 0.2 µM; on EAAC1, 20.1 ± 6.2 µM.
